Measured values taken from patent publication US8048881B2, “Pyrimidine derivatives and their use as P2Y12 receptor antagonists” (Actelion Pharmaceuticals Ltd., priority 2005, dated 2011).
Counter-ions that a name gives are not always drawn.

The molecules below were run against T1, human P2Y12 receptor (Homo sapiens, UniProt Q9H244) (assay: P2Y12 receptor binding assay). Settings: CHO cells with recombinant expression of the human P2Y12 receptor; tritium-labeled 2-methyl-S-ADP; incubation at room temperature for 2 hours.
T1 construct: expressed in transfected cells; host or cells: Chinese Hamster Ovary (CHO) cells
Method: P2Y12 Receptor Binding Assay
Chinese Hamster Ovary (CHO) cells with recombinant expression of the human P2Y12 receptor were cultured in 24 well cell-culture plates. Cells were washed three times with binding buffer (50 mM Tris pH 7.4, 100 mM NaCl, 1 mM EDTA, 0.5% BSA). The cells were then incubated with 0.5 ml per well binding buffer containing tritium-labeled 2-methyl-thio-adenosine 5′-diphosphate (2-methyl-S-ADP) (between 100'000 and 300'000 dpm per well) and various concentrations of test compounds. After incubation at room temperature for 2 hours, cells were washed three times with binding buffer. Then, cells were solubilized by addition of 0.5 ml solubilization buffer (SDS, NaOH, EDTA). The content of each well was then transferred into beta-counter vials and 2.0 ml of Ultima Gold Scintillation liquid was added.

T1 sequence (Q9H244 whole entry): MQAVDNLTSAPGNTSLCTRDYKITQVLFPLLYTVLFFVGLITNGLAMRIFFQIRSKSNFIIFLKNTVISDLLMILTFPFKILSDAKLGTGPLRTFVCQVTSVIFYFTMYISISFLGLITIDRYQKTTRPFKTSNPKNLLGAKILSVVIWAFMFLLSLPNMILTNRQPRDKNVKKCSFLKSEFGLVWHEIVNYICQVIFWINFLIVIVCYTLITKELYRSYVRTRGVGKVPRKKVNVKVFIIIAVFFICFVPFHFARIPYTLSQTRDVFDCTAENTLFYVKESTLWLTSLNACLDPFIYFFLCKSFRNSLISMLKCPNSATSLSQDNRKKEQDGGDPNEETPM

SMILES | IC50
CCOC(=O)N1CCN(C(=O)[C@H](CCC(=O)O)NC(=O)c2cc(N(C)C)nc(-c3ccccc3)n2)CC1 [Example 79, 4-{(S)-4-carboxy-2-[(6-dimethylamino-2-phenyl-pyrimidine-4-carbonyl)-amino]-butyryl}-piperazine-1-carboxylic acid ethyl ester triflate salt] | 0.121 µM
CCCCc1cc(C(=O)N[C@@H](CCC(=O)O)C(=O)N2CCN(C(=O)OCC)CC2)nc(-c2ccccc2)n1 [Example 88, 4-{(S)-2-[(6-butyl-2-phenyl-pyrimidine-4-carbonyl)-amino]-4-carboxy-butyryl}-piperazine-1-carboxylic acid ethyl ester] | 0.098 µM
CCOC(=O)N1CCN(C(=O)[C@H](CCC(=O)O)NC(=O)c2cc(-c3cccc(C)c3)nc(-c3ccccc3)n2)CC1 [Example 94, 4-{(S)-4-carboxy-2-[(2-phenyl-6-m-tolyl-pyrimidine-4-carbonyl)-amino]-butyryl}-piperazine-1-carboxylic acid ethyl ester] | 0.2 µM
CCOC(=O)N1CCN(C(=O)[C@H](CCC(=O)O)NC(=O)c2cc(C)nc(-c3cccc(C)c3)n2)CC1 [Example 105, 4-{(S)-4-carboxy-2-[(6-methyl-2-m-tolyl-pyrimidine-4-carbonyl)-amino]-butyryl}-piperazine-1-carboxylic acid ethyl ester] | 0.94 µM
CCOC(=O)N1CCN(C(=O)[C@H](Cc2ccc(C(=O)O)cc2)NC(=O)c2cc(NC(C)C)nc(-c3ccccc3)n2)CC1 [Example 115, 4-{(S)-3-(4-carboxy-phenyl)-2-[(6-isopropylamino-2-phenyl-pyrimidine-4-carbonyl)-amino]-propionyl}-piperazine-1-carboxylic acid ethyl ester] | 0.39 µM
CCOC(=O)N1CCN(C(=O)[C@H](CCCC(=O)O)NC(=O)c2cc(-c3ccccc3)nc(-c3ccccc3)n2)CC1 [Example 121, 4-{(S)-5-carboxy-2-[(2,6-diphenyl-pyrimidine-4-carbonyl)-amino]-pentanoyl}-piperazine-1-carboxylic acid ethyl ester] | 0.127 µM
CCOC(=O)N1CCN(C(=O)[C@H](CCC(=O)OC(C)(C)C)NC(=O)c2cc(OCC(=O)O)nc(-c3ccccc3)n2)CC1 [Example 132, 4-{(S)-4-tert-butoxycarbonyl-2-[(6-carboxymethoxy-2-phenyl-pyrimidine-4-carbonyl)-amino]-butyryl}-piperazine-1-carboxylic acid ethyl ester] | 8.11 µM
CCOC(=O)N1CCN(C(=O)[C@H](CCC(=O)O)NC(=O)c2cc(NC(C)COC)nc(-c3ccccc3)n2)CC1 (stereo partly drawn) [Example 223, 4-((S)-4-carboxy-2-{[6-(2-methoxy-1-methyl-ethylamino)-2-phenyl-pyrimidine-4-carbonyl]-amino}-butyryl)-piperazine-1-carboxylic acid ethyl ester formate salt] | 0.097 µM
CCOC(=O)N1CCN(C(=O)[C@H](CCC(=O)O)NC(=O)c2cc(N3CCOCC3)nc(-c3ccccc3)n2)CC1 [Example 225, 4-{(S)-4-carboxy-2-[(6-morpholin-4-yl-2-phenyl-pyrimidine-4-carbonyl)-amino]-butyryl}-piperazine-1-carboxylic acid ethyl ester formate salt] | 0.1 µM
CCOC(=O)N1CCN(C(=O)[C@H](CCC(=O)O)NC(=O)c2cc(NCC(C)O)nc(-c3ccccc3)n2)CC1 (stereo partly drawn) [Example 231, 4-((S)-4-carboxy-2-{[6-(2-hydroxy-propylamino)-2-phenyl-pyrimidine-4-carbonyl]-amino}-butyryl)-piperazine-1-carboxylic acid ethyl ester] | 0.174 µM
CCOC(=O)N1CCN(C(=O)[C@H](CCC(=O)O)NC(=O)c2cc(N[C@H]3CC[C@H](O)CC3)nc(-c3ccccc3)n2)CC1 [Example 243, 4-((S)-4-carboxy-2-{[6-(trans-4-hydroxy-cyclohexylamino)-2-phenyl-pyrimidine-4-carbonyl]-amino}-butyryl)-piperazine-1-carboxylic acid ethyl ester] | 0.223 µM
